Measurements from patent US6608082B1, “Treatment of erectile dysfunction using isoquinoline compound melanocortin receptor ligands” (Lion Bioscience AG, priority 1998, dated 2003).
Like-named read-outs stand apart in the source and are kept apart here. Values belong to the molecule of their own block, whether it stands above or below them.

Key:
[1] = molecular target: T1, MCR-4 (Homo sapiens, UniProt P32245); experiment: Melanocortin receptor binding assay, competition with 125I-HP 467, HEK 293 cells expressing hMCR-4; details: read-out: MC-4 IC50
T1 construct: expressed in transfected cells; host or cells: HEK 293
Procedure, shortened: (§1)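 Test compounds compete on intact HEK 293 cells carrying hMCR-1 (2×10^4 per tube) or hMCR-4 (4×10^3 per tube), suspended in PBS, 10% calf serum, 1 mM CaCl2.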

[2] = molecular target: T2, MCR-1 (Homo sapiens, UniProt Q01726); experiment: Melanocortin receptor binding assay, competition with 125I-HP 467, HEK 293 cells expressing hMCR-1; details: for IC50: read-out: MC-1 IC50; for % Disp. MC-1 10 μM: displacement of 125I-HP 467 at 10 μM isoquinoline compound
T2 construct: expressed in transfected cells; host or cells: HEK 293
Procedure, shortened: as §1

[3] = inhibition of binding of 125I-HP 467, HEK 293 cells expressing MCR-4, TRG 2414 library
[4] = inhibition of binding of 125I-HP 467, HEK 293 cells expressing MCR-1, TRG 2414 library
[5] = competition with 125I-HP 467, HEK 293 cells expressing MCR-4
[6] = competition with 125I-HP 467, HEK 293 cells expressing MCR-1
[7] = TRG 2406 and TRG 2407 libraries, inhibition of binding of 125I-HP 467
[8] = TRG 2405 section, inhibition of binding of 125I-HP 467, HEK 293 cells expressing MCR-4
[9] = TRG 2405 section, inhibition of binding of 125I-HP 467, HEK 293 cells expressing MCR-1
[10] = inhibition of binding of 125I-HP 467, HEK 293 cells expressing MCR-4
[11] = inhibition of binding of 125I-HP 467, HEK 293 cells expressing MCR-1
[12] = TRG 2408 and TRG 2409 libraries, inhibition of 125I-HP 467 binding
[13] = TRG 2414 library, inhibition of binding of 125I-HP 467, HEK 293 cells expressing MCR-4
[14] = TRG 2414 library, inhibition of binding of 125I-HP 467, HEK 293 cells expressing MCR-1

T1 sequence (P32245 whole entry): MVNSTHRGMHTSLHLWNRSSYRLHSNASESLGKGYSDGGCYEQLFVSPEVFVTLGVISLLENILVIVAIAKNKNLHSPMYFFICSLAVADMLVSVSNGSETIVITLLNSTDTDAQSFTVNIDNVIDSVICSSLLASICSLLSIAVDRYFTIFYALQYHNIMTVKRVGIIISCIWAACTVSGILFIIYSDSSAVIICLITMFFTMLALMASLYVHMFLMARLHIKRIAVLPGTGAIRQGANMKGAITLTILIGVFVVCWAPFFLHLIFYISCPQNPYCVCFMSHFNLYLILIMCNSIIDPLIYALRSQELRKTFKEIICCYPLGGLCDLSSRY
T2 sequence (Q01726 whole entry): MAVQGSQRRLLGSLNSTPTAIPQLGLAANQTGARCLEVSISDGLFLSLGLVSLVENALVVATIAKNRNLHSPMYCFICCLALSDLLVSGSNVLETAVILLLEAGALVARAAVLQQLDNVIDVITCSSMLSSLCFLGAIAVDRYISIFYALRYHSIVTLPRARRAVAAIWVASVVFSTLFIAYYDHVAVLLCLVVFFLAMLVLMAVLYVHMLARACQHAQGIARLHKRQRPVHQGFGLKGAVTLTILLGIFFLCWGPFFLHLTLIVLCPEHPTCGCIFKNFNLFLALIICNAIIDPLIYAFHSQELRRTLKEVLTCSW

IC50 [1, 3]: 50.6 µM | MC-1 IC50 [2, 4]: no fit
SMILES: CC(C)Cc1ccc(C(C)CNC(CN)CCCCN2Cc3ccccc3C(CNCCc3cccc(Cl)c3)C2c2cccc(Oc3ccccc3)c2)cc1 (stereo not drawn) [TRG 2414-96]

IC50 [1, 7]: 4.12 µM | IC50 [2, 7]: 3.65 µM
SMILES: CNC(CN)CCCCN1Cc2ccccc2C(CNc2ccccc2OC)C1c1ccc(Cl)cc1Cl (stereo not drawn) [TRG 2407-4]

IC50 [1, 3]: 47.1 µM | IC50 [2, 4]: 8.19 µM
SMILES: CCCOc1ccc(C2C(CNCc3cccc(OC)c3)c3ccccc3CN2CCCCC(CN)NCC(C)c2ccc(CC(C)C)cc2)cc1 (mixture of isomers) [TRG 2414-180]

IC50 [1, 3]: 2.68 µM | IC50 [2, 4]: 3.71 µM
SMILES: COc1ccc(CCNCC2c3ccccc3CN(CCCCC(N)CN)C2c2cccc(Oc3ccccc3)c2)cc1 (stereo not drawn) [TRG 2414-105]

IC50 [1, 10]: 0.66 µM | IC50 [2, 11]: 0.12 µM
SMILES: CCNc1ccc(C2C(CNCCc3ccccc3)c3ccccc3CN2CCCC(CN)NCCc2ccc(Br)cc2)cc1 (stereo not drawn) [TRG 2411-156]

IC50 [1, 3]: 8.13 µM | IC50 [2, 4]: 2.18 µM
SMILES: CCCOc1ccc(C2C(CNCc3cccc(OC)c3)c3ccccc3CN2CCCCC(CN)NCCc2ccccc2)cc1 (stereo not drawn) [TRG 2414-178]

IC50 [1, 13]: 23.4 µM | IC50 [2, 14]: 32.7 µM
SMILES: CC(C)Cc1ccc(C(C)CNC(CN)CCCCN2Cc3ccccc3C(CNCc3ccccc3)C2c2ccccc2Br)cc1 (stereo not drawn) [Cmpd 232]

IC50 [1, 5]: 1.64 µM | IC50 [2, 6]: 0.49 µM
SMILES: CCNc1ccc(C2C(CNCCc3ccccc3)c3ccccc3CN2CCCCC(CN)NCCc2ccc(Br)cc2)cc1 (mixture of isomers) [TRG 2411-41]

IC50 [1, 3]: 5.02 µM | IC50 [2, 4]: 3.56 µM
SMILES: COc1ccc(CNCC2c3ccccc3CN(CCCCC(CN)NCCc3ccccc3)C2c2ccc(Cl)cc2Cl)cc1 (stereo not drawn) [TRG 2414-22]

IC50 [1, 13]: 9.59 µM | IC50 [2, 14]: 10.3 µM
SMILES: COc1cccc(CNCC2c3ccccc3CN(CCCCC(CN)NCc3ccccc3)C2c2ccccc2Br)c1 (stereo not drawn) [Cmpd 219]

IC50 [1, 10]: 0.23 µM | IC50 [2, 11]: 0.17 µM
SMILES: CCOc1ccc(C2C(CNCCc3ccccc3)c3ccccc3CN2CCCC(CN)NCc2ccccc2)cc1 (stereo not drawn) [TRG 2412-21]

The next lines start with the molecule.

SMILES: NCC(N)CCCCN1Cc2ccccc2C(CNC2CCCCCC2)C1c1cccc(Oc2ccccc2)c1 (stereo not drawn) [TRG 2414-113]
IC50 [1, 3]: 1.78 µM | IC50 [2, 4]: 2.96 µM

SMILES: CCOc1ccccc1CNCC1c2ccccc2CN(CCCCC(CN)NCc2ccccc2)C1c1cccc(Oc2ccccc2)c1 (stereo not drawn) [TRG 2414-87]
IC50 [1, 3]: 11.2 µM | IC50 [2, 4]: 6.65 µM

SMILES: CNC(CN)CCCCN1Cc2ccccc2C(CNC2CCCCC2)C1c1ccc(NCCC2CC3CCC2C3)cc1 (stereo not drawn) [TRG 2409-22]
IC50 [1, 5]: 12.3 µM | IC50 [2, 6]: 1.53 µM

SMILES: CNC(CN)CN1Cc2ccccc2C(CNC2CCCCC2)C1c1ccc(C(F)(F)F)cc1 (stereo not drawn) [TRG 2405-148]
IC50 [1, 8]: 8.95 µM | IC50 [2, 9]: 10.3 µM | % Disp. MC-1 10 μM ([2]; first of duplicate): 63.7% | % Disp. MC-1 10 μM ([2]; second of duplicate): 57.4%

SMILES: CCn1c2ccccc2c2cc(C3C(CNCc4ccccc4O)c4ccccc4CN3CC(CN)NC)ccc21 (stereo not drawn) [TRG 2406-21]
IC50 [1, 7]: 1.53 µM | IC50 [2, 7]: 6.25 µM

SMILES: CNC(CN)CN1Cc2ccccc2C(CNC2CCCCC2)C1c1ccc([N+](=O)[O-])o1 (stereo not drawn) [TRG 2405-170]
IC50 [1, 8]: 10.2 µM | IC50 [2, 9]: 4.81 µM | % Disp. MC-1 10 μM ([2]; first of duplicate): 68.4% | % Disp. MC-1 10 μM ([2]; second of duplicate): 57.5%

SMILES: CCNc1ccc(C2C(CNC3CCCCC3)c3ccccc3CN2CCCC(CN)NCc2ccccc2)cc1 (stereo not drawn) [TRG 2411-169]
IC50 [1, 10]: 0.44 µM | IC50 [2, 11]: 0.22 µM

SMILES: CCCCNc1ccc(C2C(CN)c3ccccc3CN2CCCCC(CN)NCCc2ccc(Br)cc2)cc1 (stereo not drawn) [TRG 2411-105]
IC50 [1, 5]: 0.91 µM | IC50 [2, 6]: 0.21 µM

SMILES: CCNc1ccc(C2C(CNCc3ccccc3Cl)c3ccccc3CN2CCCCC(CN)NC)cc1 (stereo not drawn) [TRG 2407-52]
IC50 [1, 7]: 1.56 µM | IC50 [2, 7]: 0.44 µM

SMILES: NCC(N)CCN1Cc2ccccc2C(CNC2CCCCC2)C1c1ccc(Cl)cc1Cl (stereo not drawn) [TRG 2408-101]
IC50 [1, 12]: 5.68 µM | IC50 [2, 12]: 7.89 µM

SMILES: CCCOc1ccc(C2C(CNCc3ccccc3OCC)c3ccccc3CN2CCCCC(N)CN)cc1 (mixture of isomers) [TRG 2414-165]
IC50 [1, 3]: 5.06 µM | IC50 [2, 4]: 0.994 µM

SMILES: CCNc1ccc(C2C(CNC3CCCCC3)c3ccccc3CN2CCCCC(CN)NCc2ccc(Cl)cc2)cc1 (stereo not drawn) [TRG 2411-55]
IC50 [1, 5]: 2.05 µM | IC50 [2, 6]: 0.09 µM

SMILES: COc1ccc(CCNCC2c3ccccc3CN(CCCCC(CN)NCc3ccc(OC)cc3)C2c2cccc(C(F)(F)F)c2)cc1 (stereo not drawn) [TRG 2421-44]
IC50 [1, 10]: 1.42 µM | IC50 [2, 11]: 1.54 µM

SMILES: CCCOc1ccc(C2C(CNC3CCCCC3)c3ccccc3CN2CCCCC(CN)NCC(C)c2ccc(CC(C)C)cc2)cc1 (stereo not drawn) [Cmpd 200]
IC50 [1, 13]: 16.8 µM | IC50 [2, 14]: 7.59 µM
